Legend:
[1] = tested on: purified NO synthase from pig cerebellum or from pig liver; test: Activity assay of purified NOS (3H-L-arginine to 3H-L-citrulline conversion); format: biochemical; conditions: substance 100 μM, in the presence of 2 μM tetrahydrobiopterin, 15 min at 37° C.
Description: The inhibition of the activity of purified nitric oxide synthase (NOS) by compounds of the general formula I can be determined as follows.
(§1) In this activity assay the L-citrulline which is a coproduct of the formation of NO by purified NOS is quantitatively measured. ^3H-radiolabeled L-arginine is employed as substrate of the enzyme reaction and is converted into ^3H-L-citrulline and NO. After completion of the enzyme incubation, generated L-citrulline is removed from unused L-arginine by ion exchange chromatography from the reaction mixture; the ^3H activity measured by liquid scintillation then is corresponds to the amount of L-citrulline, which is a direct measure of the activity of NOS.
The basic medium for carrying out the enzyme reaction is TE buffer (triethanolamine, EDTA, pH 7.0).
The final volume of each incubation is 100 μl. The reaction mixture is obtained by mixing the following 6 components on ice: • 1. “REA-Mix” (pH 7.0) which contains triethanolamine, calcium chloride, magnesium chloride, EDTA, L-arginine, calmodulin and flavin adenine dinucleotide (FAD); • 2. freshly prepared stock solution of β-nicotinamide adenine dinucleotide phosphate, reduced form (NADPH); • 3. (6R)-5,6,7,8-tetrahydro-L-biopterin dihydro-chloride stock solution (BH4) or —for experiments without BH4-instead TE buffer; • 4. purified NO synthase from pig cerebellum or from pig liver; • 5.
(§2) After mixing of the components on ice, the reaction mixture was immediately incubated in a water bath at 37° C. for 15 minutes. […] After this incubation time, the reaction was stopped by addition of 900 μl of ice-cold “stop buffer” (20 mM sodium acetate, 2 mM EDTA, pH 5.5), and the mixture (total volume now 1.0 ml) was placed on ice. To remove the unreacted ^3H-L-arginine, the mixture was loaded onto an ion exchange column with 0.8 ml of Dowex AG 50 WX-8 (100-200 mesh) which has previously been washed and equilibrated with 2 ml of stop buffer. After loading of the sample, the column was eluted twice with 1 ml of water each time. The flow-through of the sample and the eluate were collected in scintillation vessels and […] (total volume 3 ml). 9 ml of scintillator solution were added to the 3 ml of aqueous measurement solution, and the homogeneous mixture was measured in a Tricarb 2500 TR (Packard) liquid scintillation counter for 1 minute for each sample. […] Each substance was tested for an antagonistic effect in a concentration of 100 μM in the presence of 2 μM tetrahydrobiopterin, and for an agonistic effect on NOS in the absence of tetrahydrobiopterin.
All incubations were carried out on triplicates. Each experiment was repeated three times with different enzyme preparations.

[2] = target: NOS-I (Homo sapiens, UniProt P29475); test: Inhibition of human NOS isoforms: NOS-I; format: biochemical
Description: as §1, §2
In addition, the relative selectivities of the antipterin inhibitors for the three known human NOS isoforms were measured. So doing, the IC50 values for NOS-II/NOS-I and NOS-III/NOS-I were formed (compare Table 2).

[3] = target: NOS-III (Homo sapiens, UniProt P29474); test: Inhibition of human NOS isoforms: NOS-III; format: biochemical; conditions: human NOS-III
Description: (§3) After mixing of the components on ice, the reaction mixture was immediately incubated in a water bath at 37° C. for 15 minutes. […] After this incubation time, the reaction was stopped by addition of 900 μl of ice-cold “stop buffer” (20 mM sodium acetate, 2 mM EDTA, pH 5.5), and the mixture (total volume now 1.0 ml) was placed on ice. To remove the unreacted ^3H-L-arginine, the mixture was loaded onto an ion exchange column with 0.8 ml of Dowex AG 50 WX-8 (100-200 mesh) which has previously been washed and equilibrated with 2 ml of stop buffer. After loading of the sample, the column was eluted twice with 1 ml of water each time. The flow-through of the sample and the eluate were collected in scintillation vessels and […] (total volume 3 ml). 9 ml of scintillator solution were added to the 3 ml of aqueous measurement solution, and the homogeneous mixture was measured in a Tricarb 2500 TR (Packard) liquid scintillation counter for 1 minute for each sample. […] In addition, the relative selectivities of the antipterin inhibitors for the three known human NOS isoforms were measured. So doing, the IC50 values for NOS-II/NOS-I and NOS-III/NOS-I were formed (compare Table 2).

[4] = target: NOS-II (Homo sapiens, UniProt P35228); test: Inhibition of human NOS isoforms: NOS-II; format: biochemical; conditions: human NOS-II
Description: as §3

[5] = tested on: NO synthase; conditions: literature reports on BH4 analogues; cited from earlier work
[6] = tested on: purified NO synthase from pig cerebellum or from pig liver; test: Activity assay of purified NOS (3H-L-arginine to 3H-L-citrulline conversion); format: biochemical; conditions: incubated in the presence of 5 kU/ml catalase for 45 minutes

| Compound | Remaining activity (% of Vmax) [1] | effect on NO production / NO synthase [5] | also measured |
| --- | --- | --- | --- |
| CCCN(CCC)c1nc(N)nc2c1NC(c1ccccc1)CN2.Cl.Cl.Cl.O (stereo not drawn) [Example 46, 2-amino-4-(di-n-propylamino)-6-phenyl-5,6,7,8-tetrahydropteridine trihydrochloride hydrate] | 8 ± 0.05 % of Vmax | – | Activity (% of control) [2]: 1 ± 0.1 % of control; Activity (% of control) [3]: 27 ± 0.2 % of control; Activity (% of control) [4]: 68 ± 1 % of control |
| CC1Nc2nc(N)[nH]c(=O)c2NC1C (stereo not drawn) [6,7-dimethyl-5,6,7,8-tetrahydropterin] | – | no significant effects | – |
| Nc1nc2c(c(=O)[nH]1)N=C([C@H](O)[C@H](O)CO)CN2 [dihydroneopterin] | – | no significant effects | – |
| Nc1nc(=O)c2[nH]c(=O)cnc2[nH]1 [xanthopterin] | – | no significant effects | – |
| Nc1nc2c(c(=O)[nH]1)N=C(CNc1ccc(C(=O)N[C@@H](CCC(=O)O)C(=O)O)cc1)CN2 [dihydrofolic acid] | – | no significant effects | – |
| 2-amino-4-(dibenzylamino)-6-(3,4-dimethoxyphenyl)-pteridine hemihydrate [Example 22] | 0 % of Vmax | – | IC50 [6]: 2000 nM |
| C[C@@H](O)[C@@H](O)[C@H]1CNc2nc(N)[nH]c(=O)c2N1 [Example 6S-BH4, 6S-BH4] | – | able to partly replace the natural cofactor | – |
| Nc1nc(N(Cc2ccccc2)Cc2ccccc2)c2nc(-c3ccc(Cl)cc3)cnc2n1.O.O [Example 20, 2-amino-4-(dibenzylamino)-6-(4-chlorophenyl)-pteridine dihydrate] | 0 % of Vmax | – | IC50 [6]: 3500 nM |
| CC1CNc2nc(N)[nH]c(=O)c2N1 (stereo not drawn) [6-methyl-5,6,7,8-tetrahydropterin] | – | able to partly replace the natural cofactor | – |
| Nc1nc2c(c(=O)[nH]1)NC(C(O)C(O)CO)CN2 (stereo not drawn) [tetrahydro-neopterin] | – | no significant effects | – |
| Nc1nc2c(c(=O)[nH]1)NC(CNc1ccc(C(=O)N[C@@H](CCC(=O)O)C(=O)O)cc1)CN2 (stereo partly drawn) [tetrahydrofolic acid] | – | no significant effects | – |
| COc1ccc(-c2cnc3nc(N)nc(N(Cc4ccccc4)Cc4ccccc4)c3n2)cc1 [Example 21, 2-amino-4-(dibenzylamino)-6-(4-methoxyphenyl)-pteridine] | 0 ± 0.05 % of Vmax | – | Activity (% of control) [2]: 27 ± 1 % of control; Activity (% of control) [3]: 68 ± 2 % of control; Activity (% of control) [4]: 81 ± 6 % of control |
| Biopterin | – | no significant effects | – |
| Nc1nc2ncc([C@H](O)[C@H](O)CO)nc2c(=O)[nH]1 [neopterin] | – | no significant effects | – |
| Nc1nc(NCC2CCCCC2)c2c(n1)NCC(c1ccc(Cl)cc1)N2 (stereo not drawn) [Example 49, 2-amino-4-(cyclohexylmethylamino)-6-(4-chloro-phenyl)-5,6,7,8-tetrahydropteridine dihydro-chloride hydrate] | 0 % of Vmax | – | Activity (% of control) [2]: 0 ± 0.1 % of control; Activity (% of control) [3]: 18 ± 1 % of control; Activity (% of control) [4]: 78 ± 6 % of control |
| CCCN(CCC)c1nc(N)nc2c1NC(c1ccc(OC)cc1)CN2.Cl.Cl.O.O (stereo not drawn) [Example 47, 2-amino-4-(di-n-propylamino)-6-(4-methoxyphenyl)-5,6,7,8-tetrahydropteridine dihydrochloride dihydrate] | 0 % of Vmax | – | Activity (% of control) [2]: 0 ± 0.1 % of control; Activity (% of control) [3]: 31 ± 3 % of control; Activity (% of control) [4]: 78 ± 0.4 % of control |

| Compound | Remaining activity (% of Vmax) [1] | effect on NO production / NO synthase [5] | also measured |
| --- | --- | --- | --- |
| Nc1nc2ncc(CNc3ccc(C(=O)N[C@@H](CCC(=O)O)C(=O)O)cc3)nc2c(=O)[nH]1 [folic acid] | – | no significant effects | – |
| Nc1nc2[nH]c(=O)cnc2c(=O)[nH]1 [isoxanthopterin] | – | no significant effects | – |
| CC(O)C(O)C1CNc2c(nc(N)[nH]c2=O)N1 (stereo not drawn) [7-R/S-BH4] | – | able to partly replace the natural cofactor | – |
| C[C@H](O)[C@H](O)C1=Nc2c(nc(N)[nH]c2=O)NC1 [dihydrobiopterin] | – | able to partly replace the natural cofactor | – |
| CC1CNc2nc(N)[nH]c(=O)c2C1 (stereo not drawn) [5-deaza-6-methyl-5,6,7,8-tetrahydropterin] | – | weak inhibition | – |
| CN(Cc1cnc2nc(N)nc(N)c2n1)c1ccc(C(=O)N[C@@H](CCC(=O)O)C(=O)O)cc1 [methotrexate] | – | no significant effects | – |
| CCN(CC)c1nc(N)nc2ncc(-c3ccccc3)nc12.O [Example 15, 2-amino-4-(diethylamino)-6-phenylpteridine hydrate] | 75 ± 3 % of Vmax | – | – |
| Nc1nc(N(Cc2ccccc2)Cc2ccccc2)c2nc(-c3ccccc3)cnc2n1.O.O [Example 19, 2-amino-4-(dibenzylamino)-6-phenylpteridine dihydrate] | 0 ± 0.05 % of Vmax | – | – |
| Nc1nc(N2CCCCC2)c2nc(-c3ccc(Cl)cc3)cnc2n1.O.O [Example 32, 2-amino-4-(piperidin-1-yl)-6-(4-chlorophenyl)-pteridine dihydrate] | 3 ± 1 % of Vmax | – | – |
| CCCN(CCC)c1nc(N)nc2ncc(-c3ccccc3)nc12.O.O.O [Example 23, 2-amino-4-(di-n-propylamino)-6-phenylpteridine trihydrate] | 77 ± 16 % of Vmax | – | – |
| COc1ccc(-c2cnc3nc(N)nc(N(C)C)c3n2)cc1 [Example 13, 2-amino-4-(dimethylamino)-6-(4-methoxyphenyl)-pteridine] | 13 ± 4 % of Vmax | – | – |
| Nc1nc2nccnc2c(=O)[nH]1 [pterin] | – | no significant effects | – |
| 2-amino-4-(morpholin-4-yl)-6-phenyl-5,6,7,8-tetra-hydropteridine dihydrochloride hemihydrate [Example 42] | 51 ± 3 % of Vmax | – | – |
| COc1ccc(C2CNc3nc(N)nc(N4CCOCC4)c3N2)cc1OC.Cl.O (stereo not drawn) [Example 41, 2-amino-4-(morpholin-4-yl)-6-(3,4-dimethoxy-phenyl)-5,6,7,8-tetrahydropteridine hydrochloride hydrate] | 68 ± 11 % of Vmax | – | – |
| Cl.Cl.Cl.Nc1nc2c(c(N3CCCCC3)n1)NC(c1ccc(Cl)cc1)CN2.O (stereo not drawn) [Example 43, 2-amino-4-(piperidin-1-yl)-6-(4-chlorophenyl)-5,6,7,8-tetrahydropteridine trihydrochloride hydrate] | 0 % of Vmax | – | – |

Source: patent US6844343B1, “N-substituted 4-aminopteridines, synthesis and use thereof as pharmaceutical agent” (Vasopharm Biotech GmbH, priority 1999, dated 2005)
